This data set in a line: Reactivity of enteric coating materials with azithromycin: ester formation in 50/50 mixtures, LC/MS. The class given is physicochemical. Conditions: 50/50 (w/w) mixture of azithromycin and material, 50° C. and 20% RH. Here is the method:
The reactivity of the materials useful for forming enteric coatings listed in Table 1 with azithromycin was determined as follows. […] (CAT), and triacetin, were prepared by adding equal weights of azithromycin and the material to a mortar and mixing with a spatula. […] Azithromycin esters were identified in each of the mixtures by LC/MS detection. […] The sample solutions were then filtered with a 0.45 μm nylon syringe filter. The sample solutions were then analyzed by HPLC using a Hypersil BDS C18 4.6 mm×250 mm (5 μm) HPLC column on a Hewlett Packard HP1100 liquid chromatograph. The mobile phase employed for sample elution was a gradient of isopropyl alcohol and 25 mM ammonium acetate buffer (pH approximately 7) as follows: initial conditions of 50/50 (v/v) isopropyl alcohol/ammonium acetate; the isopropyl alcohol percentage was then increased to 100% over 30 minutes and held at 100% for an additional 15 minutes. The flow rate was 0.80 mL/min. The method used a 75 μL injection volume and a 43° C. column temperature. A Finnigan LCQ Classic mass spectrometer was used for detection. […] Azithromycin ester values were calculated from the MS peak areas based on an external azithromycin standard. […] The results of this analysis are shown below as are the measured rates of ester formation (Re) at 50° C.

This is an account of results in patent US20080199527A1, “Enteric Coated Azithromycin Multiparticulates” (Pfizer Inc., priority 2004, published 2008).

Each structure is given as a SMILES string.

`CC(=O)OCC(COC(C)=O)OC(C)=O` [Triacetin, triacetin]: the “Re at 50° C. (rate of ester formation)” value is 6.5 × 10^−2 wt %/day. Moreover, the “Concentration of Azithromycin Esters” value (storage time 10 days) is 0.65 wt %.
